Data taken from patent US20040087539A1, “Method of treating conditions related to platelet activity” (priority 2003, published 2004).

Assays:
[1] = test system: platelets; assay: Ristocetin-induced vWF-dependent platelet aggregation in platelet-rich plasma; assay type: cell-based, human; settings: for integrin-dependent second wave of platelet aggregation induced by ristocetin: PRP preincubated 37° C. 5 min, KT5823 2 pM, Rp-8pCPT-cGMP 0.2 μM, KT5720 2 pM [sic], FIG. 3A
Procedure: (§1) Fresh blood from healthy volunteers was anticoagulated with 1/7 volume of ACD (2.5% trisodium citrate, 2% dextrose and 1.5% citric acid). Platelets were washed with CGS buffer (sodium chloride 0.12 M, trisodium citrate 0.0129 M and d-glucose 0.03 M, pH 6.5), resuspended in modified Tyrode's solution and allowed to incubate at 22° C. for 1 hours as previously described. In experiments using platelet-rich plasma (PRP), 1/10 volume of 3.8% trisodium citrate was used as anticoagulant. Platelet aggregation was measured using a turbidometric platelet aggregometer (Chrono-Log) at 37° C. vWF-dependent platelet aggregation was induced by addition of ristocetin or botrocetin to PRP. To differentiate CPIb-IX-mediated platelet agglutination from the second wave of integrin-dependent platelet aggregation, final concentrations of ristocetin were adjusted in each experiment to achieve a two-wave curve of aggregation. Washed platelets were used in platelet aggregation induced by a-thrombin (Enzyme Research Laboratories). To examine the effects of PKG, 100 μM of membrane permeable cGMP analogs, 8-bromo-cGMP or 8-dibutyl-cGMP (Calbiochem), or 1 μM sildenafil citrate (Pfizer) and added simultaneously with subthreshold concentrations of agonists. PKG inhibitors KT5823 (2 pM) and Rp-8PCPT-cGMP (0.2 mM) were preincubated with platelets at 37° C. for 5 minutes before addition of agonists.
(§2) In FIG. 3A, platelet rich-plasma (PRP) was preincubated at 37° C. for 5 mm with PKG inhibitors KT5823 (2 pM) or Rp-8pCPT-cGMP (0.2 μM). PRP was also incubated with DMSO (vehicle for KT5823), a PKA inhibitor, KT5720 (2 pM), or buffer (Control). The vWF modulator, ristocetin, was then added to induce vWF-GPIb-IX interaction. […] In FIG. 3B, a subthreshold concentration of ristocetin was added to PRP immediately followed by addition of 8-bromo-cGMP or buffer (Control). PRP also was preincubated with integrin inhibitor RGDS before adding ristocetin and 8-bromo-cGMP. In FIG. 3C, platelets were preincubated with or without PKG inhibitor KT5823, then allowed to spread on vWF-coated glass chamber slides. Platelets were stained with an anti-GPIb antibody, and fluorescein-labeled secondary antibody. The slides were imaged under a confocal microscope (magnification =630×).
(§3) In FIG. 6A, increasing concentrations of sildenafil or control 0.15 M NaCl solution were added to platelet-rich plasma followed by a subthreshold concentration of ristocetin. Platelet aggregation was recorded using a platelet aggregometer. In FIG. 6B, sildenafil or control buffer was added to washed platelets followed by addition of subthreshold doses of thrombin to induce platelet aggregation. It was noted that platelet aggregation occurs in the presence of sildenafil. The figure includes the representative results of at least three experiments.
(§4) In FIG. 7A, PRP was preincubated with 0.1 mM 8-bromo-cGMP for increasing lengths of time at 37° C. as indicated. The vWF modulator, ristocetin (1.25 mg/ml), then was added to induce platelet aggregation in a turbidometric platelet aggregometer. In FIG. 7B, PRP was preincubated with a high concentration of 8-bromo-cGMP (1 mM) for 5 minutes. Ristocetin then was added to induce platelet aggregation. In FIGS. 7C and 7D, washed platelets in modified Tyrode's solution were preincubated with 1 mM 8-bromo-cGMP (C), or various concentrations of 8-pCPT-cGMP (D) at 37° C. for 5 minutes. Thrombin (0.05 u/ml) then was added to induce platelet aggregation.

[2] = test system: platelets; assay: Low-dose α-thrombin-induced aggregation of washed platelets; assay type: cell-based, human; settings: for platelet aggregation induced by 0.05 units/ml α-thrombin: washed platelets preincubated 5 min, KT5823 2 μM, Rp-8pCPT-cGMP 0.2 mM, SZ2 40 pg/ml [sic], FIG. 5A
Procedure: as §1
In FIG. 5A, washed platelets were preincubated with 40 pg/mi anti-GPIba monoclonal antibody SZ2, integrin inhibitor RGDS, or inhibitors of PKG, KT5823 (2 μM) or Rp-8pCPT-cGMP (0.2 mM) (Calbiochem), for 5 min. Platelets also were preincubated with DMSO (vehicle for KT5823), KT5720 or buffer (Control) as controls. α-Thrombin (0.05 units/mi) then was added to induce platelet aggregation. Nonspecific JgG and RGES peptides also were examined as additional controls, but had no effect (not shown). In FIG. 5B, a subthreshold dose of thrombin was added to platelets immediately followed by addition of PKG activator 8-bromo-cGMP or buffer (Control). Shown in the figure are the representative results of at least three experiments.
as §3, §4

[3] = test system: platelets; assay: Platelet spreading on vWF-coated surface; assay type: cell-based, human; settings: FIG. 3C
Procedure: Platelets were allowed to adhere and spread on 10 μg/ml vWF-coated glass chamber slides (Nunc) at 37° C. for 1 hour. After three washes, platelets were fixed by adding 4% paraformaldehyde in PBS. Platelets were permeabilized by adding 0.1 M Tris, 0.01 M EGTA, 0.15 M NaCl, 5 mM MgCl2, pH 7.4, containing 0.1% Triton X-100, 0.5 mM leupeptin, 1 mM PMSF, and 0.1 mM E64, and then incubated with 20 μg/ml of anti-GPIba antibody (anti-IbαC) at 22° C. for 1 hour. Platelets were further incubated with fluorescein-labeled secondary antibody at 22° C. for 30 mm. After additional washes, platelets were scanned under a Zeiss LSM 510 confocai microscope (Magnification=630×).
as §2, with “Platelets were stained with an anti-GPIb antibody, and fluorescein-labeled secondary antibody. The slides were imaged under a confocal microscope (magnification =630×).” left out

[4] = test system: 123 cells (CHO cells expressing recombinant human GPIb-IX and integrin αIIbβ3); assay: vWF-induced GPIb-IX-mediated activation of integrin αIIbβ3 (Oregon green-labeled fibrinogen binding, flow cytometry); assay type: cell-based, Chinese Hamster; settings: 123 cells; preliminary studies, data not shown
Procedure: Human PKG Iβ cDNA was cloned by RT-PCR, using human platelet mRNA as templates. Sequence of the human PKG Iβ cDNA fragment matches the published sequence. Cloning of human PKG Iα cDNA was described previously. PKG Iα or Iβ in pCDNA3.1/Zeo+vector was transfected into 123 cells (CHO cells expressing recombinant human CPIb-IX and integrin αIIbβ3 using Lipofectamine plus (BRL). Expression of PKG was assessed by Western blotting with an antihuman PKG I antibody (Calbiochem). The kinase activity of the expressed enzymes was measured in cell homogenates using BPDEtide (Calbiochem) as substrate as detailed previously. vWF-induced GPIb-IX-mediated activation of integrin αIIbβ3 was examined by flow cytometry analysis of Oregon green-labeled fibrinogen binding to integrln αIIbβ3 as described previously. Briefly, cells were detached from tissue culture plate using 0.5 mM EDTA, washed at 4° C. and resuspended in modified Tyrode's solution. Cells then were incubated with Oregon green-labeled fibrinogen (20 μg/ml) in the presence of ristocetin and vWF at 22° C. for 30 minutes, and analyzed by FACScalibur flow cytometer. Nonspecific binding of fibrinogen was estimated by measuring fibrinogon binding in the presence of a specific integrin inhibitor RGDS (1 mM) (see Refs. 13 and 43-45).
In FIG. 1A, CHO cells expressing GPLb-JX and integrin αIIbβ3 (123 cells) were transfected with cDNA encoding PKGIα or vector. Expression of PKG Ia in 123 cells was detected by Western blotting with an anti-human PKG I antibody (Insert), and recombinant PKG activity was determined in the absence or presence of 20 μM 8-bromo-cGMP as previously described. Results are expressed as mean +SD (n=3). For FIGS. 1B and 1C, reconstitution of GPIb-IX-mediated integrin activation in CHO cells was published (see Ref. 13). […] Cells were analyzed by flow cytometry. Quantitative results from three experiments are expressed as fibrinogen binding indices (total bound fluorescence (Fg)/nonspecifically bound fluorescence (Fg+RGDS)), and shown in FIG. 1B (mean ±SD).

[5] = test system: platelets; assay: Measurement of cGMP formation in washed platelets (enzyme immunoassay); assay type: cell-based, human; settings: ristocetin plus vWF 15 μg/ml or glyco-SNAP1 100 μM, 5 minutes, FIG. 4
Procedure: Washed platelets (3×10^8/ml) resuspended in 400 μl Tyrode's buffer were stirred at 37° C. after addition of control buffer, 1 mg/mi ristocetin alone, 15 pg/mi vWF and 1 mg/mi ristocetin, or 100 μM glyco-SNP1. The reaction was stopped by addition of 400 μl of ice-cold 12% (w/v) trichloroacetic acid. Samples were mixed and centrifuged at 2000×g for 15 ruin at […]. Supenatant was removed and washed with 5 volumes of water-saturated diethyl ether 4 times, and then lyophilized. cGMP levels were measured using a cGMP enzyme immunoassay kit from Amersham-Pharmacia Biotech.
Washed platelets (3×10^8/ml) were preincubated at 37° C. for 10 mm with buffer, control JgG, a monoclonal antibody against GPIba, AK2. Platelets then were further incubated in a platelet aggregometer for 5 minutes after addition of buffer (Control), 1.25 mg/ml ristocetin only (Risto), ristocetin plus vWF (vWF) (15 μg/ml) or glyco-SNAP1 (100 μM). The reaction was stopped by addition of 400 μl of ice-cold 12% (w/v) trichloroacetic acid. CGMP concentrations were determined using a cGMP enzyme immunoassay kit. Results are expressed as mean ±SD (n=3).

[6] = test system: CHO cells expressing human platelet receptors; assay: Cell adhesion to immobilized vWF under flow; assay type: cell-based, Chinese Hamster; settings: sildenafil 5 μM, RGDS 4 mM
Procedure: CHO cells expressing human platelet receptors were resuspended in modified Tyrode's buffer, pH 7.4, containing 1 mg/mi of bovine serum albumin (BSA) (see Ref. 46), and final cell count was 5×10^5/ml. […] Purified human vWF (10 μg/ml in 0.1 M NaHCO3, pH 8.3) was added to glass microcapillary tubes (inner diameter of 1.33 mm and a length of 7.2 cm), and incubated at 4° C. for 20 h. The vWF-coated microcapillary tubes then were incubated with 5% BSA. After washing, the cell suspension was aspirated through the tube by a syringe pump (Harvard Apparatus Inc.) at desired shear rates for 1.2 minutes and washed with modified Tyrode's buffer for additional 10 minutes at the same shear rates to remove transiently adherent cells. The experiments were continuously recorded on videotape using a video cassette recorder (model 9500, Sony). The number of stably adherent cell on immobilized vWF was counted on images obtained at 20 randomly selected positions in the vWF-coated tubes.
In FIGS. 2A and B, vWF-coated capillary tubes were perfused with equivalent numbers (5×10^5/ml) of CHO cells expressing recombinant GPLb-JX alone (1b9), integrin αIIbβ3 alone (2b3a), both GPIb-IX and integrin αIIbβ3 (123) or expressing GPJb-JX, integrin α^IIbβ3 and PKG Ia (123PKG) at a shear rates of 800 s^−1 (A) or 1500 s^−1 (B) for 1.2 minutes, and then perfused with the modified Tyrodes buffer for 10 minutes at the same shear rates to wash out transient adherent cells. The expenments were recorded in real time. Cells stably adherent to vWF-coated capillary tubes at 20 randomly selected locations were counted.
In FIG. 2C, vector-transfected 123 cells (123) or 123PKG cells also was perfused into vWF-coated glass capillary tubes as described in FIG. 2A in the absence or presence (+RGDS) of an integrin inhibitor RGDS peptide (4 mM) and in the absence (Control) or presence of cGMP-enhancing drug, sildenafil (5 μM). […] The experiments were repeated at least three times.

Nc1nc2c(nc(Sc3ccc(Cl)cc3)n2C2O[C@@H]3COP(=O)(O)O[C@H]3[C@H]2O)c(=O)[nH]1 (stereo in doubt) [8-pCPT-cGMP]
platelet aggregation together with a subthreshold concentration of ristocetin ([1]; PRP, agent added with subthreshold ristocetin (1 mg/mm [sic]) (or botrocetin), FIGS. 3B, 6A): induced integrin-dependent platelet aggregation
preincubation time required to inhibit platelets ([2]; 0.5 mM 8-pCPT-cGMP, washed platelets, thrombin 0.05 u/ml, FIG. 7D): less than 5 minutes

CCCCCCOC(=O)[C@]1(O)C[C@@H]2O[C@@]1(C)n1c3ccccc3c3c4c(c5c6ccccc6n2c5c31)C(=O)NC4 [KT5720]
integrin-dependent second wave of platelet aggregation induced by ristocetin [1]: no inhibitory effects

COC(=O)[C@@]1(OC)C[C@H]2O[C@]1(C)n1c3ccccc3c3c4c(c5c6ccccc6n2c5c31)C(=O)N(C)C4 [KT5823]
platelet spreading on a vWF-coated surface [3]: inhibited
integrin-dependent second wave of platelet aggregation induced by ristocetin [1]: abolished
GPIb-IX-mediated integrin activation [4]: inhibited
platelet aggregation induced by 0.05 units/ml α-thrombin [2]: inhibited

Nc1nc2c(nc(Sc3ccc(Cl)cc3)n2C2OC3COP(O)(=S)OC3C2O)c(=O)[nH]1 (stereo not drawn) [Rp-8-pCPT-cGMP]
integrin-dependent second wave of platelet aggregation induced by ristocetin [1]: inhibited
platelet aggregation induced by 0.05 units/ml α-thrombin [2]: inhibited

CC(=O)NC(C(=O)NC1OC(CO)C(O)C(O)C1O)C(C)(C)SN=O (stereo not drawn) [glyco-SNAP1]
platelet cGMP levels [5]: comparable

RGDS
stable adhesion of PKG-expressing 123 cells (123PKG) to vWF under flow ([6]; FIG. 2C, 8-bromo-cGMP not shown): inhibited
stable adhesion of sildenafil-treated 123 cells to vWF under flow [6]: inhibited
platelet aggregation induced by 0.05 units/ml α-thrombin [2]: inhibited

RGES
platelet aggregation induced by 0.05 units/ml α-thrombin [2]: no effect

vWF: purified human von Willebrand factor, ligand of GPIb-IX
platelet cGMP levels [5]: dramatic increase
